Assay results published in patent publication US20250134874A1, “PHARMACEUTICAL FORMULATIONS COMPRISING 3-({[(4R)-7-{METHYL[4-(PROPAN-2-YL)PHENYL]AMINO}-3,4-DIHYDRO-2H-1-BENZOPYRAN-4-YL]METHYL}AMINO)PYRIDINE-4-CARBOXYLIC ACID” (TACHYON THERAPEUTICS, INC., priority 2021, published 2025).

Test system: 301 cancer cell lines from different tumor types (OncoPanel; HD Biosciences)
Assay: 2D cell viability inhibition assay (CellTiter-Glo) in cancer cell line panel
Format: cell-based
Parameters: key to AUC: AUC as fraction of the no-inhibition area (dose range × 0–100 % of control)
Details: for Emax: in %
Procedure: In a larger screening study, compound 1 was evaluated across a broad cancer cell line panel (OncoPanel; HD Biosciences) composed of 301 cancer cell lines from different tumor types.
2D cell viability inhibition assays were performed in multiwell plates seeded with cells from the panel. After seeding, the plates were cultured overnight in a humidified incubator at 37° C. to promote adherence. Assays were initiated in individual wells by adding either DMSO as a vehicle control, growth media as a blank, or serially diluted compound 1 (10 μM to 0.0005 μM with 1:3 serial dilution). Cultures were incubated for 168 hours after which the number of viable cells in each test well was assessed using the CellTiter-Glo® Luminescent Cell Viability Assay. Luminescence readouts were performed using an EnVision® Multilabel Reader and the compound 1 readouts were normalized to the DMSO control readouts, expressed as a percent of the control. Outliers were flagged out by visual inspection. Percent of control was plotted against the corresponding compound 1 concentration and the absolute IC50 value was determined using four-parameter logistic non-linear regression as the concentration where inhibition was 50% of the control. For maximum inhibition <50%, the absolute IC50 was reported as >10. In addition to EC50 and IC50, AUC was determined and was normalized to the area corresponding to theoretical no-inhibition (the rectangular area defined by the compound dose range and 0 to 100 in y). Emax was recorded as the minimum in y with the compound dose range. For those cell lines where Emax>40, EC50 was manually set to 10 μM. A hierarchical clustering algorithm based on Euclidean distance between the standardized input values and “Ward.D” method as implemented in R hclust function was used to visualize the compound 1 cellular potency data. The sensitive/moderate/resistant calls for each cell line was determined by visually inspecting the resulting clustering dendrogram. All the analyses were done in R Core Team.

Structure (SMILES): CC(C)c1ccc(N(C)c2ccc3c(c2)OCC[C@H]3CNc2cnccc2C(=O)O)cc1 [Compound 1, 3-({[(4R)-7-{methyl[4-(propan-2-yl)phenyl]amino}-3,4-dihydro-2H-1-benzopyran-4-yl]methyl}amino)pyridine-4-carboxylic acid]
- AUC (NCIH23 cell line): 0.6227
- AUC (NCIH69 cell line): 0.2802
- Emax (NCIH69 cell line): 1.271
- AUC (NCIH82 cell line): 0.2502
- AUC (NCIH209 cell line): 0.1869
- Emax (NCIH209 cell line): 8.61
- AUC (NCIH358 cell line): 0.4332
- Emax (NCIH358 cell line): 22.66
- AUC (NCIH441, lung, adenocarcinoma, 168 hours): 0.7804
- AUC (NCIH446 cell line): 0.5837
- AUC (NCIH460 cell line): 0.3714
- Emax (NCIH460 cell line): 7.705
- AUC (NCIH508 cell line): 0.3378
- Emax (NCIH508 cell line): 3.207
- AUC (NCIH520 cell line): 0.3237
- AUC (NCIH522 cell line): 0.4447
- Emax (NCIH522 cell line): 15.14
- AUC (NCIH524 cell line): 0.3617
- Emax (NCIH524 cell line): 12.7766
- AUC (NCIH596, lung, mixed adenosquamous carcinoma, 168 hours): 0.8151
- AUC (NCIH647 cell line): 0.4942
- Emax (NCIH647 cell line): 28.29
- AUC (NCIH661 cell line): 0.3608
- Emax (NCIH661 cell line): 9.075
- AUC (NCIH716 cell line): 0.3799
- Emax (NCIH716 cell line): 12.75
- AUC (NCIH929 cell line): 0.5285
- AUC (NCIH1048 cell line): 0.1479
- AUC (NCIH1092 cell line): 0.479
- Emax (NCIH1092 cell line): 26.4
- AUC (NCIH1155 cell line): 0.07571
- AUC (NCIH1299 cell line): 0.3508
- Emax (NCIH1299 cell line): 12.65
- AUC (NCIH1355 cell line): 0.5594
- AUC (NCIH1395, lung, adenocarcinoma, 168 hours): 0.8542
- AUC (NCIH1435, lung, non-small cell carcinoma, 168 hours): 0.7612
- AUC (NCIH1436 cell line): 0.4953
- Emax (NCIH1436 cell line): 34.4
- AUC (NCIH1437 cell line): 0.4082
- Emax (NCIH1437 cell line): 14.97
- AUC (NCIH1563, lung, adenocarcinoma, 168 hours): 0.9652
- AUC (NCIH1573, lung, adenocarcinoma, 168 hours): 0.7482
- AUC (NCIH1618 cell line): 0.02266
- EC50 (NCIH1618 cell line): 0.508 nM
- IC50 (NCIH1618 cell line): < 0.5 nM
- AUC (NCIH1623 cell line): 0.522
- AUC (NCIH1650, lung, bronchioloalveolar adenocarcinoma, 168 hours): 0.8746
- AUC (NCIH1666 cell line): 0.2983
- AUC (NCIH1694 cell line): 0.3214
- Emax (NCIH1694 cell line): 21.59
- AUC (NCIH1703 cell line): 0.4204
- Emax (NCIH1703 cell line): 21.7324
- AUC (NCIH1734 cell line): 0.6734
- AUC (NCIH1755, lung, adenocarcinoma, 168 hours): 1.29
- AUC (NCIH1793 cell line): 0.4916
- Emax (NCIH1793 cell line): 27.48
- AUC (NCIH1836 cell line): 0.3332
- AUC (NCIH1838, lung, non-small cell carcinoma, 168 hours): 0.7858
- AUC (NCIH1930 cell line): 0.5402
- AUC (NCIH1944 cell line): 0.5809
- Emax (NCIH1944 cell line): 37.59
- AUC (NCIH1975 cell line): 0.529
- AUC (NCIH2009, lung, adenocarcinoma, 168 hours): 0.7914
- AUC (NCIH2023 cell line): 0.2884
- AUC (NCIH2081 cell line): 0.3049
- AUC (NCIH2087 cell line): 0.3822
- AUC (NCIH2122 cell line): 0.5019
- AUC (NCIH2171 cell line): 0.7416
- AUC (NCIH2172 cell line): 0.6812
- AUC (NCIH2228 cell line): 0.6864
- AUC (NCIH2286 cell line): 0.2917
- AUC (NCIH2291 cell line): 0.3822
- Emax (NCIH2291 cell line): 13.48
- AUC (NCIH2347 cell line): 0.5778
- Emax (NCIH2347 cell line): 40.29
- AUC (NCIN87 cell line): 0.3132
- AUC (NIHOVCAR3, ovary, NS, 168 hours): 0.7771
- AUC (NMCG1, central nervous system, NS, 168 hours): 0.7013
- AUC (NOMO1 cell line): 0.3293
- AUC (NUGC3 cell line): 0.3824
- Emax (NUGC3 cell line): 16
- AUC (NUGC4 cell line): 0.4642
- Emax (NUGC4 cell line): 24.53
- EC50 (OCUM1, OCUM1 cell line): ≥ 10000 nM
- IC50 (OCUM1, OCUM1 cell line): 7.79 nM
- AUC (OCUM1 cell line): 0.5324
- Emax (OCUM1 cell line): 32.42
- AUC (ONS76, central nervous system, NS, 168 hours): 0.7336
- AUC (OSRC2 cell line): 0.6658
- AUC (OVISE cell line): 0.5405
- IC50 (OVISE cell line): 24 nM
- AUC (P31FUJ cell line): 0.286
- AUC (PANC1 cell line): 0.5543
- AUC (PANC0213 cell line): 0.5829
- EC50 (PANC0213 cell line): 21.5 nM
- IC50 (PANC0213 cell line): 35.8 nM
- AUC (PC3 cell line): 0.502
- Emax (PC3 cell line): 26.1466
- AUC (PECAPJ34CLONEC12 cell line): 0.311
- EC50 (PECAPJ34CLONEC12 cell line): 3.81 nM
- IC50 (PECAPJ34CLONEC12 cell line): 3.97 nM
- AUC (PF382 cell line): 0.2761
- AUC (PLCPRF5 cell line): 0.5107
- AUC (RCM1 cell line): 0.6711
- AUC (RD cell line): 0.4703
- Emax (RD cell line): 27.42
- AUC (REH cell line): 0.0957
- AUC (RERFLCMS cell line): 0.6415
- EC50 (RERFLCMS cell line): 23.5 nM
- IC50 (RERFLCMS cell line): 65.9 nM
- AUC (RKO cell line): 0.3827
- Emax (RKO cell line): 11.05
- AUC (RL cell line): 0.2366
